Source: patent US20110165603A1, “SMALL MOLECULE FLUORESCENT SENSORS FOR DETECTION OF POST-TRANSLATIONALMODIFICATIONS AND PROTEIN INTERACTIONS IN BIOASSAYS” (Gyrasol Technologies Inc., priority 2008, published 2011)
Entries after “also recorded” stand apart in the source; their conditions may differ.

Assays:
[1] = tested on: PKA present in 2 μg lysate; assay: Multiplexed lysate assay: PKA phosphorylation of Chromeo642-labeled LRRASLG; assay type: biochemical, mouse; details: 3 μM substrate, FIG. 24B
Description: (§1) In the presence of cAMP, PKA activity is stimulated resulting in phosphorylation of labeled kemptide substrate and an increase in the delta RFU of the kemptide (right axis). PDE4A 1A hydrolyzes c-AMP to AMP resulting in an increase in the delta RFU (left axis). In the presence of the PDE inhibitor IBMX, hydrolysis of cAMP is inhibited resulting in hight concentrations of cAMP and higher PKA activities. FIG. 24B is a line graph of the change in relative fluorescence units (delta RFU) in fluorescien-labelled cAMP (1.5 μM, left axis) and Chromeo642-labeled LRRASLG (3 μM, right axis) caused by PKA present in 2 μg lysate in the presence of varying amounts of the non-selective PDE inhibitor IBMX.
(§2) Multiplexing can be accomplished using electron transfer quenching with zirconyl chloride sensor and 2 μM fluorescein labeled cAMP simultaneously with 2 μM TAMRA labeled cGMP in various concentration of mouse brain lysate.
(§3) The assay platform can be used to monitor activities of enzymes of various classes, and thus is a novel tool to connect different braches of signaling. As outlined in the schematic FIG. 24A, a phsphodiesterase-mediated cleavage of cAMP is inhibited by IBMX. As a result, increasing amounts of cAMP can bind to the regulatory domain of its downstream target, PKA. Upon binding, the regulatory subunits disassociate from the catalytic subunit and PKA becomes catalytically active.

[2] = tested on: phosphodiesterase; assay: Multiplexed lysate assay: phosphodiesterase mediated cleavage of fluorescein-labeled cAMP; assay type: biochemical, mouse; details: 2 μg lysate, 1.5 μM cAMP substrate, FIG. 24B
Description: as §1, §2, §3

[3] = target: recombinant PDE41A1A (Homo sapiens, UniProt P27815); assay: PDE biochemical inhibition assay with fluorescein-labeled cAMP and zirconyl chloride sensor; details: endpoint mode, PDE4A1A 3 nM, 2 μM fluorescein-labeled cAMP, 100 μM sensor, FIG. 21A
recombinant PDE41A1A, sequence (P27815 1-647 isoform P27815-4): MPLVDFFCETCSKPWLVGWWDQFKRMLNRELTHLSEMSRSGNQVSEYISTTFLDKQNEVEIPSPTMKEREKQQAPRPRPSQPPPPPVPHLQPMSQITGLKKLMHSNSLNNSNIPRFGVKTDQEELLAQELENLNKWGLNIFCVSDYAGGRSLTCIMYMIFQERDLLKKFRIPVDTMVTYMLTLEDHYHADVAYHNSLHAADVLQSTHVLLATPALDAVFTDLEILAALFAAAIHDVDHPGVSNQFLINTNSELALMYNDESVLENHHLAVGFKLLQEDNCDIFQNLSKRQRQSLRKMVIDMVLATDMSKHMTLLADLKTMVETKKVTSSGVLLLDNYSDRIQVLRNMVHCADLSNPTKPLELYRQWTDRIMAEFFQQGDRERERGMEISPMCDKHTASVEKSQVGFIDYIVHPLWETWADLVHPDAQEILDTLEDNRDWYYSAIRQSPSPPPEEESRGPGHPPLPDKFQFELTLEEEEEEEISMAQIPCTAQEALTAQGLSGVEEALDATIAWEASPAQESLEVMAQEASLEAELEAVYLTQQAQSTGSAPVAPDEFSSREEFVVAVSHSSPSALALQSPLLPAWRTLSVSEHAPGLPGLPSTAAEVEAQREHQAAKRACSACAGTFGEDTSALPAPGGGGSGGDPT
Description: Assays were conducted with fluorescein-labeled cAMP at 2 μM and sensor (zirconyl chloride) at 100 μM.
For biochemical assays, 2 μM fluorescein labeled cAMP was added to various concentrations of recombinant PDE4AIA and zirconyl chloride sensor was added (100 μM) following 1 hour of incubation at room temperature (FIG. 19A). […] Reactions were terminated by addition of 100 μM Zirconyl sensor. […] Reactions were terminated by addition of 100 μM Zirconyl sensor.

In the case of `CC(C)Cn1c(=O)n(C)c(=O)c2[nH]cnc21` [IBMX], the “PKA activity (delta RFU of Chromeo642-labeled LRRASLG) as a function of inhibitor concentration” value [1] is reported as “increasing phosphorylation of the PKA substrate Chromeo-GLRRASLG; also recorded: PKA activity increases with increasing amount of IBMX”, the “PDE activity (delta RFU of fluorescein-labeled cAMP) as a function of inhibitor concentration” value [2] is reported as “decreasing activity of phosphodiesterase mediated cleavage of cAMP; also recorded: PDE activity decreased with increasing amounts of IBMX” and the Inhibition values [3] is reported as “closely matched literature values”.
